# Values joined by “and” are separate entries in the source; they are usually repeats but may differ in a detail not shown here. Identical values can stand only once. Counter-ions that a name gives are not always drawn. Like-named read-outs stand apart in the source and are kept apart here.
# What was measured:
# influenza virus H3N2 = format: in vivo, mice
# [1] = Toxicity (lethal effect, LD50) in mice; format: in vivo; conditions: endogastrically, observation 14 days
# Method: (§1) Determination of toxicity of 1-methyl-2-phenylthiomethyl-3-carbethoxy-5-oxy-6-bromindol sulfon as compared with arbidol.
# (§2) The administration of the preparations was carried out endogastrically, the period of observation of the animals was 14 days.
# [2] = system: influenza virus A/PR/8/34; format: cell-based; conditions: influenza virus A/PR/8/34, MDCK cells; concentration not given
# [3] = Toxicity (lethal effect, LD50) in rats; format: in vivo; conditions: endogastrically, observation 14 days
# Method: as §1, §2
# [4] = system: avian influenza virus (H5N1); format: in vivo, white mice; conditions: orally
# [5] = system: influenza A/Singapore/1/57 virus; experiment: microbe, parasite or virus in culture; format: cell-based; conditions: for Percent of inhibition of OD 490: added 2 hours after infection
compound,measurement,setting,value
"CCOC(=O)c1c(CSc2ccccc2)n(C)c2cc(Br)c(O)c(CN(C)C)c12 [Arbidol, 1-methyl-2-phenylthiomethyl-3-carbethoxy-4-dimethylaminomethyl-5-oxy-6-bromindol hydrochloride]",Percent of surviving mice,influenza virus H3N2; Concentration 15,80%
same,Percent of surviving mice,"influenza virus H3N2; Concentration 30, hydrochloride",80% and 60% and 70%
same,Lethal effect upon administration to mice,[1]; Dose 100 mg/kg,0/6
same,Lethal effect upon administration to mice,[1]; Dose 250 mg/kg,0/6
same,Lethal effect upon administration to mice,[1]; Dose 500 mg/kg,1/6
same,Lethal effect upon administration to mice,[1]; Dose 1000 mg/kg,3/6
same,Lethal effect upon administration to mice,[1]; Dose 3000 mg/kg,6/6
same,LD50 at 14 days,"[1]; mouse, in vivo, oral, mice",860 ± 50 mg/kg
same,Percent of suppression of virus reproduction,[2],60%
same,Lethal effect upon administration to rats,[3]; Dose 100 mg/kg,0/6
same,Lethal effect upon administration to rats,[3]; Dose 250 mg/kg,0/6
same,Lethal effect upon administration to rats,[3]; Dose 500 mg/kg,1/6
same,Lethal effect upon administration to rats,[3]; Dose 1000 mg/kg,3/6
same,Lethal effect upon administration to rats,[3]; Dose 3000 mg/kg,6/6
same,LD50 at 14 days,"[3]; rat, in vivo, oral, rats",1720 ± 70 mg/kg
same,"Surviving mice, %",[4]; Arbidol 30 mg/kg + Oseltamivir 0.25 mg/kg,70%
same,"Surviving mice, %",[4]; Arbidol 30 mg/kg + Oseltamivir 1.0 mg/kg,85%
same,"Surviving mice, %",[4]; Arbidol 30 mg/kg + Oseltamivir 2.5 mg/kg,100%
same,"Surviving mice, %",[4]; Arbidol 30 mg/kg alone (Oseltamivir 0 mg/kg),65%
same,suppression of virus reproduction,[5]; 1 μg of arbidol with 10-12 mg of zanamivir or oseltamivir,100%
same,Percent of inhibition of OD 490,[5]; A or B 0.3 μg/ml + Zanamivir 0.3 μg,20%
same,Percent of inhibition of OD 490,[5]; A or B 0.3 μg/ml + Zanamivir 1 μg,30%
same,Percent of inhibition of OD 490,[5]; A or B 0.3 μg/ml + Zanamivir 3.3 μg,37%
same,Percent of inhibition of OD 490,[5]; A or B 0.3 μg/ml + Zanamivir 10 μg,48%
same,Percent of inhibition of OD 490,[5]; A or B 0.3 μg/ml + Zanamivir 33 μg,60%
same,Percent of inhibition of OD 490,[5]; A or B 1 μg/ml + Zanamivir 0.3 μg,33%
same,Percent of inhibition of OD 490,[5]; A or B 1 μg/ml + Zanamivir 3.3 μg,46%
same,Percent of inhibition of OD 490,[5]; A or B 1 μg/ml + Zanamivir 10 μg,100%
same,Percent of inhibition of OD 490,[5]; A or B 1 μg/ml + Zanamivir 33 μg,100%
same,Percent of inhibition of OD 490,[5]; A or B 3 μg/ml + Zanamivir 0.3 μg,60%
same,Percent of inhibition of OD 490,[5]; A or B 3 μg/ml + Zanamivir 1 μg,58%
same,Percent of inhibition of OD 490,[5]; A or B 3 μg/ml + Zanamivir 3.3 μg,93%
same,Percent of inhibition of OD 490,[5]; A or B 3 μg/ml + Zanamivir 10 μg,100%
same,Percent of inhibition of OD 490,[5]; A or B 3 μg/ml + Zanamivir 33 μg,100%
same,Percent of inhibition of OD 490,[5]; A or B 5 μg/ml + Zanamivir 0.3 μg,69%
same,Percent of inhibition of OD 490,[5]; A or B 5 μg/ml + Zanamivir 1 μg,85%
same,Percent of inhibition of OD 490,[5]; A or B 5 μg/ml + Zanamivir 3.3 μg,88%
same,Percent of inhibition of OD 490,[5]; A or B 5 μg/ml + Zanamivir 10 μg,100%
same,Percent of inhibition of OD 490,[5]; A or B 5 μg/ml + Zanamivir 33 μg,100%
same,Percent of inhibition of OD 490,[5]; A or B 10 μg/ml + Zanamivir 0.3 μg,71%
same,Percent of inhibition of OD 490,[5]; A or B 10 μg/ml + Zanamivir 1 μg,85%
same,Percent of inhibition of OD 490,[5]; A or B 10 μg/ml + Zanamivir 3.3 μg,98%
same,Percent of inhibition of OD 490,[5]; A or B 10 μg/ml + Zanamivir 10 μg,"100, 100%"
same,Percent of inhibition of OD 490,[5]; A or B 10 μg/ml + Zanamivir 33 μg,"100, 100%"
same,Percent of inhibition of OD 490,[5]; A or B 10 μg/ml alone (Zanamivir 0),22%
same,Percent of inhibition of OD 490,[5]; A or C 0.3 μg/ml + Oseltamivir 0.4 μg,35%
same,Percent of inhibition of OD 490,[5]; A or C 0.3 μg/ml + Oseltamivir 4.1 μg,37%
same,Percent of inhibition of OD 490,[5]; A or C 0.3 μg/ml + Oseltamivir 12.3 μg,47%
same,Percent of inhibition of OD 490,[5]; A or C 1 μg/ml + Oseltamivir 0.4 μg,48%
same,Percent of inhibition of OD 490,[5]; A or C 1 μg/ml + Oseltamivir 1.2 μg,59%
same,Percent of inhibition of OD 490,[5]; A or C 1 μg/ml + Oseltamivir 4.1 μg,56%
same,Percent of inhibition of OD 490,[5]; A or C 1 μg/ml + Oseltamivir 12.3 μg,100%
same,Percent of inhibition of OD 490,[5]; A or C 1 μg/ml + Oseltamivir 41 μg,100%
same,Percent of inhibition of OD 490,[5]; A or C 3 μg/ml + Oseltamivir 0.4 μg,62%
same,Percent of inhibition of OD 490,[5]; A or C 3 μg/ml + Oseltamivir 1.2 μg,58%
same,Percent of inhibition of OD 490,[5]; A or C 3 μg/ml + Oseltamivir 4.1 μg,90%
same,Percent of inhibition of OD 490,[5]; A or C 3 μg/ml + Oseltamivir 12.3 μg,100%
same,Percent of inhibition of OD 490,[5]; A or C 3 μg/ml + Oseltamivir 41 μg,"100, 100%"
same,Percent of inhibition of OD 490,[5]; A or C 5 μg/ml + Oseltamivir 0.4 μg,79%
same,Percent of inhibition of OD 490,[5]; A or C 5 μg/ml + Oseltamivir 1.2 μg,84%
